Data from patent US20020137929A1, “1 - (3-heterocyclylphenyl) isothiourea, -isourea, -guanidine and -amidine herbicidal agents” (Intellectual Property Department, BASF Aktiengesellschaft, priority 1998, published 2002).

Assays:
[1] = tested on: IPOSS (Morningglory Spp.); test: Postemergence herbicidal evaluation; type: in vivo, Ipomoea Spp.
Method: In the tests, seedling plants are grown in jiffy flats for about two weeks. The test compounds are dispersed in 50/50 acetone/water mixtures containing 0.5% TWEEN®20, a polyoxyethylene sorbitan monolaurate surfactant of Atlas Chemical Industries, in sufficient quantities to provide the equivalent of about 0.0156 kg to 0.500 kg per hectare of active compound when applied to the plants through a spray nozzle operating at 40 psi for a predetermined time. After spraying, the plants are placed on greenhouse benches and are cared for in accordance with conventional greenhouse procedures. From four to five weeks after treatment, the seedling plants are examined and rated according to the rating system set forth below. Where more than one test is involved for a given compound, the data are averaged.
Plant species employed in these evaluations are reported by header abbreviation, common name and scientific name.
(§1) Results of herbicide evaluation are expressed on a rating scale (0-9). The scale is based upon a visual observation of plant stand, vigor, malformation, size, chlorosis and overall plant appearance as compared with a control.

ZEAMX (Corn, Field) = test: Postemergence herbicidal evaluation; type: in vivo, Zea mays; conditions: postemergence
Method in brief: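 Visual 0-9 injury score (stand, vigor, malformation, size, chlorosis, appearance vs untreated) taken four to five weeks post-spray, averaged across repeat tests. Test plants about two weeks old; foliar spray of acetone/water (1:1) with 0.5% surfactant delivering ~0.0156-0.500 kg active/ha.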

ABUTH (Velvetleaf) = test: Preemergence herbicidal evaluation; type: in vivo, Abutilon theophrasti; conditions: rated 4-5 weeks after treatment
Method in brief: (§2)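 Steps: mix seeds into potting soil; plant atop ~1 inch soil; spray compound in aqueous acetone (~0.0156-0.500 kg/ha equivalent); maintain in greenhouse with watering; rate visually 0-9 versus control at 4-5 weeks.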

AMBEL (Ragweed, Common) = test: Preemergence herbicidal evaluation; type: in vivo, Ambrosia artemisifolia; conditions: rated 4-5 weeks after treatment
Method in brief: as §2

[2] = tested on: IPOSS (Morningglory Spp.); test: Preemergence herbicidal evaluation; type: in vivo, Ipomoea Spp.; conditions: rated 4-5 weeks after treatment
Description: as §1
The preemergence herbicidal activity of the test compounds of the present invention is exemplified by the following tests in which the seeds of a variety of monocotyledonous and dicotyledonous plants are separately mixed with potting soil and planted on top of approximately one inch of soil in separate pint cups. After planting, the cups are sprayed with the selected aqueous acetone solution containing test compound in sufficient quantity to provide the equivalent of about 0.0156 to 0.500 kg per hectare of test compound per cup. The treated cups are then placed on greenhouse benches, watered and cared for in accordance with conventional greenhouse procedures. From four to five weeks after treatment, the tests are terminated and each cup is examined and rated according to the rating system provided in Example 37.
The compounds evaluated are reported by compound number given in Example 37.

[3] = tested on: GLXMAW (Soybean, Williams); test: Preemergence herbicidal evaluation; type: in vivo, Glycine max, (L.) Merr. cv Williams; conditions: rated 4-5 weeks after treatment
Method in brief: as §2

MOOVA (Monochoria) = test: Postemergence weed control under flooded paddy conditions; type: in vivo, Monochoria vaginalis; conditions: postemergence weeds, 3-4 weeks after treatment
Method in brief: (§3)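 Injury ratings (0–9 scale covering stand, vigor, malformation, size, chlorosis and overall appearance versus control) were made three to four weeks after treatment. Test material, about 0.0313 to 0.500 kg/ha a.i. in 50/50 v/v aqueous/acetone, was added to flood water 1.5 to 3 cm deep over 3 to 5 cm weeds and 1.5 to 2.5 leaf rice.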

[4] = tested on: SAGPY (Arrowhead (Pygmaea)); test: as above; type: in vivo, Sagittaria pygmaea; conditions: postemergence weeds, 3-4 weeks after treatment
Method in brief: as §3

CN1C(=O)CSC1=Nc1cc(N2C(=O)C3=C(CCCC3)C2=O)c(F)cc1Cl [Compound 1, N-{4-chloro-2-fluoro-5-[(3-methyl-4-oxo-2-thiazolidinylidene)amino]phenyl}-1-cyclohexene-1,2-dicarboximide]
IPOSS herbicidal rating ([1]; rate 0.0157 kg/ha): 6.0 | IPOSS herbicidal rating ([1]; rate 0.0313 kg/ha): 9.0 | IPOSS herbicidal rating ([1]; rate 0.0625 kg/ha): 9.0 | IPOSS herbicidal rating ([1]; rate 0.1250 kg/ha): 9.0 | IPOSS herbicidal rating ([1]; rate 0.2500 kg/ha): 9.0 | IPOSS herbicidal rating ([1]; rate 0.5000 kg/ha): 9.0 | ZEAMX herbicidal rating (ZEAMX (Corn, Field); rate 0.0157 kg/ha): 2.5 | ZEAMX herbicidal rating (ZEAMX (Corn, Field); rate 0.0313 kg/ha): 3.5 | ZEAMX herbicidal rating (ZEAMX (Corn, Field); rate 0.0625 kg/ha): 4.0 | ZEAMX herbicidal rating (ZEAMX (Corn, Field); rate 0.1250 kg/ha): 5.0 | ZEAMX herbicidal rating (ZEAMX (Corn, Field); rate 0.2500 kg/ha): 5.5 | ZEAMX herbicidal rating (ZEAMX (Corn, Field); rate 0.5000 kg/ha): 6.5 | ABUTH preemergence herbicidal rating (ABUTH (Velvetleaf); rate 0.0313 kg/ha): 5.0 | ABUTH preemergence herbicidal rating (ABUTH (Velvetleaf); rate 0.0625 kg/ha): 9.0 | ABUTH preemergence herbicidal rating (ABUTH (Velvetleaf); rate 0.1250 kg/ha): 9.0 | ABUTH preemergence herbicidal rating (ABUTH (Velvetleaf); rate 0.2500 kg/ha): 9.0 | ABUTH preemergence herbicidal rating (ABUTH (Velvetleaf); rate 0.5000 kg/ha): 9.0 | AMBEL preemergence herbicidal rating (AMBEL (Ragweed, Common); rate 0.0313 kg/ha): 0.0 | AMBEL preemergence herbicidal rating (AMBEL (Ragweed, Common); rate 0.0625 kg/ha): 2.0 | AMBEL preemergence herbicidal rating (AMBEL (Ragweed, Common); rate 0.1250 kg/ha): 5.0 | AMBEL preemergence herbicidal rating (AMBEL (Ragweed, Common); rate 0.2500 kg/ha): 5.0 | AMBEL preemergence herbicidal rating (AMBEL (Ragweed, Common); rate 0.5000 kg/ha): 6.7 | IPOSS preemergence herbicidal rating ([2]; rate 0.0313 kg/ha): 1.0 | IPOSS preemergence herbicidal rating ([2]; rate 0.0625 kg/ha): 6.0 | IPOSS preemergence herbicidal rating ([2]; rate 0.1250 kg/ha): 7.0 | IPOSS preemergence herbicidal rating ([2]; rate 0.2500 kg/ha): 6.0 | IPOSS preemergence herbicidal rating ([2]; rate 0.5000 kg/ha): 8.0 | GLXMAW preemergence herbicidal rating ([3]; rate 0.0313 kg/ha): 0.0 | GLXMAW preemergence herbicidal rating ([3]; rate 0.0625 kg/ha): 2.0 | GLXMAW preemergence herbicidal rating ([3]; rate 0.1250 kg/ha): 2.0 | GLXMAW preemergence herbicidal rating ([3]; rate 0.2500 kg/ha): 4.0 | GLXMAW preemergence herbicidal rating ([3]; rate 0.5000 kg/ha): 3.0 | Herbicidal rating MOOVA (MOOVA (Monochoria); rate 0.0313 kg/ha): 4.0 | Herbicidal rating MOOVA (MOOVA (Monochoria); rate 0.0625 kg/ha): 4.5 | Herbicidal rating MOOVA (MOOVA (Monochoria); rate 0.1250 kg/ha): 4.5 | Herbicidal rating MOOVA (MOOVA (Monochoria); rate 0.2500 kg/ha): 5.0 | Herbicidal rating MOOVA (MOOVA (Monochoria); rate 0.5000 kg/ha): 5.5 | Herbicidal rating SAGPY ([4]; rate 0.0313 kg/ha): 0.0 | Herbicidal rating SAGPY ([4]; rate 0.0625 kg/ha): 0.0 | Herbicidal rating SAGPY ([4]; rate 0.1250 kg/ha): 0.0 | Herbicidal rating SAGPY ([4]; rate 0.2500 kg/ha): 0.0 | Herbicidal rating SAGPY ([4]; rate 0.5000 kg/ha): 0.0
